Legend:
[1] = system: Human alphaherpesvirus 1; type: functional, organism-based; conditions: Human alphaherpesvirus 1, KOS, HEL
[2] = (§1) Cytotoxicity against HEL cells assessed as alteration of cell morphology by microscopic analysis; type: toxicity, cell-based; conditions: human, HEL cells
[3] = system: Vaccinia virus; experiment: microbe, parasite or virus in culture; conditions: Orthopoxvirus vaccinia, HEL
[4] = system: Human alphaherpesvirus 3; type: functional, organism-based; conditions: Human alphaherpesvirus 3, O7-1, HEL
[5] = system: Human alphaherpesvirus 3; type: functional, organism-based; conditions: Human alphaherpesvirus 3, OKA, HEL
[6] = system: Human betaherpesvirus 5; type: functional, organism-based; conditions: Human betaherpesvirus 5, Davis, HEL
[7] = system: Human alphaherpesvirus 1; type: functional, organism-based; conditions: Human alphaherpesvirus 1, KOS, HEL; remark: listed apart in the source
[8] = system: Human alphaherpesvirus 2; type: functional, organism-based; conditions: Human alphaherpesvirus 2, G, HEL
[9] = system: Human adenovirus 2; type: functional, organism-based; conditions: Human mastadenovirus C, HEL
[10] = system: Human betaherpesvirus 5; type: functional, organism-based; conditions: Human betaherpesvirus 5, AD-169, HEL
[11] = system: HEL; experiment: as §1; type: toxicity, cell-based; conditions: human, hel

| Compound | EC50 [1] [µM] | MCC [2] [µM] | EC50 [3] [µM] | EC50 [4] [µM] | EC50 [5] [nM] | EC50 [6] [µM] | EC50 [7] [µM] | EC50 [8] [µM] | EC50 [9] [µM] | EC50 [10] [µM] | Activity [11] |
| --- | --- | --- | --- | --- | --- | --- | --- | --- | --- | --- | --- |
| Nc1nc2c(ncn2COCCO)c(=O)[nH]1 [ACYCLOVIR] | 126 | > 250 | > 250 | 14.7 | 700 |  |  |  |  |  |  |
| Nc1nc2c(ncn2COC(CO)CO)c(=O)[nH]1 [GANCICLOVIR] |  | > 100 | > 100 |  |  | 0.63 |  |  |  |  |  |
| Nc1ccn(C[C@@H](CO)OCP(=O)(O)O)c(=O)n1 [CIDOFOVIR] | 1 | > 250 |  |  |  |  |  |  |  |  |  |
| O=c1[nH]c(=O)n([C@@H]2CN[C@H](CO)[C@@H](O)C2)cc1I | 34 | > 100 | 50 | 61 | 50000 | 67 | 45 | 45 | 50 | 76 |  |
| O=c1[nH]c(=O)n([C@H]2C[C@H](O)[C@@H](CO)O2)cc1/C=C/Br [BRIVUDINE] |  | > 250 |  | 2.4 | 42 |  |  |  |  |  |  |
| Nc1nc(=O)n([C@@H]2CN[C@H](CO)[C@@H](O)C2)cc1F |  |  |  |  |  |  |  |  |  |  | Non-Toxic |

From ChEMBL document CHEMBL5108006, “Synthesis and antiviral properties of biomimetic iminosugar-based nucleosides” (Eur J Med Chem, 2022)
